For one series, the system named is trypsin. Nature of the series: Trypsin sensing with HS-PEG-peptide conjugates and Arg-Arg-AuNPs assemblies. Type of series: biochemical. The procedure: Peptides containing the motif Arg-Arg-Lys (RRK) were thus conjugated to a thiolated PEG capped with a carboxyl group (HS-PEG12-COOH, Mw=634 Da) via EDC/NHS cross-linking reaction. Three peptides based on the motif RRK were investigated and the number of RRK repetitions varied from 1 to 3 to increase the mass and charge of the resulting HS-PEG-peptide conjugate (FIG. 6A).
From concentrations of 10 μM, HS-PEG12-COOH is capable to dissociate 100% of the assemblies (FIG. 21). However, the conjugation of the peptides to the HS-PEG12-COOH was expected to decrease its capacity to dissociate the assemblies as it increases its size and charge. In this context, the addition of the HS-PEG-peptide conjugates to AuNPs assemblies could not generate a colorimetric signal. However, in the presence of trypsin, the proteolytic cleavage could progressively remove the amino acids residues from the conjugate, thus reducing its size and charge that would restore the dissociation capacity. A colorimetric signal, proportional to the trypsin activity, could thus be observed (FIG. 6B).
Typically, 1 mL of HS-PEG12-COOH (HS—(CH2CH2O)12—CH2CH2COOH, 634 Da, 1 mM) dissolved in MES buffer (10 mM, pH=5.5) was activated via the addition of 100 μL of EDC (50 mM, MES) and 40 μL of NHS (500 mM, MES). The reaction was stirred at room temperature for one hour. After one hour, 1 mL of peptide (or NH2-molecule) (1 mM) dissolved in PBS (100 mM, pH=7.4) was added to the activated HS-PEG12-COOH. The reaction was stirred for 4 hours at room temperature and then stored at 4° C.
Typically, 5 μL of the PEG-peptide conjugate (0.44 mM) were added to 5 μL of PBS 1×. […] At the end of the incubation, 100 μL of aggregated AuNPs (Arg-Arg-AuNPs) were added, and a color change proportional to the trypsin concentration was observed. UV-Vis spectra were recorded 30 minutes later.

Series [1] in a line: Colloidal stability of the dissociated AuNPs (aggregation parameter). The settings on record: for colloidal stability of peptide-capped AuNPs: NaCl 0.5 to 2 μM (so in the source), absorbance 520/600 nm. Type of series: physicochemical. How it is done: We further studied the role of Glu, Lys, and Pro amino acids in A1 peptides (FIG. 37h). For example, Pro-based spacer can provide a rigid and self-assembling monolayer (SAM) that increases the colloidal stability of AuNPs.^28 When the spacer was moved to the site between Glu and Lys residues (i.e., A5), the dissociation capacity was 50% lower than A1 peptide. […] A1 peptide without Lys (i.e., A7) decreased to 30% of the dissociation capacity likely due to the decrease in grafting kinetics of thiol-Au bonds and hydration layers.^22,25 Lastly, the dissociated AuNPs were incubated in different concentrations ([…]) of NaCl to examine colloidal stability of the dissociated AuNPs (FIG. 37i).
Pro-, Ala-, and Gly-based spacers have different hydrophobic and hydrophilic natures, rigidity, and flexibility.^22,29 For example, Pro residue is more hydrophobic and rigid (i.e, low mobility) while Gly residue is more hydrophilic and flexible. To investigate the impact of the rigidity and hydrophilicity of the peptides on the particle dissociation, we synthesized A1, A10, and A11 peptides that have different spacers: PP, AA, GG (FIG. 38a-b and FIG. 49). We also synthesized the peptide without a spacer (i.e., A9) to confirm the impact of the spacer on particle dissociation. […] We further compared colloidal stability of the dissociated AuNPs by A1, A9, A10, and A11 peptides. The dissociated AuNPs were incubated in NaCl (from […]) for 1 h and measured variations of absorbance between 520 nm and 600 nm.
This exemplary dissociation strategy can also improve colloidal stability of plasmonic nanoparticles. […] Lastly, this exemplary dissociation strategy is less affected by matrix interference. We replaced the sample matrix with 100% human plasma, urine, saliva, and seawater after RRK-based AuNPs aggregation. After adding dissociation peptides, reversible aggregation still occurred, leading to a blue-shift of the plasmonic resonance peak; this in turn changes color from blue to red in 100% human plasma, urine, saliva, and seawater (FIG. 40j-k and FIG. 27).

A short description of series [2]: Peptide-enabled dissociation of RRK-induced AuNP aggregates. How it is done:
After inducing AuNP aggregates by the RRK peptides, the A1 peptides with different concentrations from 7 to 300 μM were used to dissociate AuNP aggregates. The plasmonic resonance peak of AuNP aggregates blue shifted to 520 nm after particle dissociation. (FIG. 37b). The hydrodynamic diameter of AuNP aggregates (greater than (>) 1 μm) was reduced to 27±0.07 nm, and the surface charge of AuNPs was—13.4±1.03 mV because of surface modification with neutral charged A1 peptides (150 μM) and residual citrates (FIG. 37c). Particle dissociation induced color change from blue to red and a decrease in size as confirmed by time-dependent photographs, multi-laser wavelength nanoparticle tracking analysis (M-NTA), and TEM (FIG. 37d-e and FIG. 45A-C).
To further study the role of each amino acid in the A1 peptide, we synthesized eight peptide sequences (from A2 to A8) for control experiments (FIG. 46A-H). Table 1 includes peptide sequence, net charge, critical dissociation concentrations (CDC), and design rationale. First, we replaced Cys residue with Gly (i.e., A2) to confirm the role of the anchoring group. […] Second, we hypothesized that negatively charged EE residues were required for particle dissociation because they provide electrostatic repulsions for citrate-coated AuNPs.
(§1) Briefly, 10 μM of RRK peptide was used to aggregate 100 μL of AuNPs (conc approximately 3.6 nM). The particle aggregation rapidly occurred (less than 10 s), changing color from red to blue. Then the desired dissociation peptides were used to dissociate the AuNP aggregates. It is notable that these exemplary AuNPs are stabilized by citrate. Different surface ligands (for example, BSPP) and different sizes (40 or 60 nm) require different amounts of RRK peptide for particle aggregation.
Briefly, RRK peptides (8-10 μM) was first used to trigger AuNP aggregation in distilled water. The sample was centrifuged at […] for 5 min to remove the supernatant. Then, the pellet was re-dispersed in 100% human saliva, plasma, urine, and seawater. After re-dispersion, the desired amounts of dissociation peptide were used to dissociate AuNPs aggregates in different matrixes. […] The experiment was performed with three replicates, and the microplate reader was used to measure spectral scanning from 300 to 900 nm before and after dissociation. The ratiometric signal (λ520/λ700) was referred as dissociation. The data was blanked to remove background signal.

Series [3] can be described thus: RRK-based aggregation of citrate-coated AuNPs. The settings on record: for particle aggregation of AuNPs: peptides from 0.5 to 30 μM.
Excerpt: To induce reversible aggregation of the AuNPs, we used positively charged Arg and Lys-based peptide residues (i.e., RRK). The RRK peptide could induce plasmonic coupling by electrostatic attractions between negatively charged citrate molecules and guanidine and amine groups in RRK (FIG. 36a).^8,19 The size of AuNPs increased upon addition of RRK peptides, as confirmed by transmission electron microscopy (TEM) and dynamic light scattering (DLS) (FIG. 36b and FIG. 42). […] Raman spectroscopy observed the appearance of C—C stretching at 984 cm^−1 and C—N stretching at 1443 cm^−1 from Arg residues in RRK (FIG. 36d).^20 Lastly, R, RRK, and RRKRRK (SEQ ID NO:13) peptides (from 0.5 to 30 μM) were used to induce AuNP aggregates to study the impact of charge number on particle aggregation. […] A higher positive charge number can decrease the critical coagulation concentration (CCC).^7 RRK peptide was chosen in this study because particle aggregation induced by a strong cationic peptide (i.e., RRKRRK) (SEQ ID NO:13) can result in irreversible aggregation.
as §1

Series [4] deals with SARS-CoV-2 main protease (Mpro) (Severe acute respiratory syndrome coronavirus 2, UniProt P0DTD1).
Series [5] in a line: Peptide-induced (Arg-Arg) assembly of AuNPs-citrate, TEM/MANTA/UV-Vis. The settings on record: water. The text has this:
Formation of AuNP assemblies. In this study, we investigated the possibility of forming convenient and reversible AuNPs assemblies using only elementary 15 nm AuNPs-citrate suspended in water and short peptides without the need for a complex surface modification. Peptides were used because they are relatively bulky and thus their steric prevented the particles from entering a permanent aggregated state. Arginine in particular can strongly interact with citrate anions via electrostatic interactions. A dipeptide containing two repetitions of arginine (Arg-Arg or RR) was thus used to interact with multiple particles at the same time and induce assembly.
Multispectral advanced nanoparticles tracking analysis (MANTA) was then used to confirm the size increase: The initial blue scattering corresponding to a hydrodynamic diameter of 40±25 nm (FIG. 1C) transformed immediately into red scattering corresponding to a hydrodynamic diameter of approximately 467±120 nm (FIG. 1D). Importantly, the count of particles decreased by more than 90%—from 2.5×10^5/mL to 2×10^4/mL, thus confirming that the vast majority of the AuNPs-citrate were aggregated. TEM images at different magnifications are seen in the supporting information (FIG. 10 and FIG. 11).
AuNPs Assembly and Dissociation Assembly. Typically, 1 mL of AuNPs-citrate at OD=1.5 was mixed with 50 μL of Arg-Arg (100 μM) to provoke the AuNPs assembly. The color of the suspensions rapidly changed from red to blue. The assembled AuNPs (Arg-Arg-AuNPs) were stable over time when stored at 4° C. and could be used for dissociation even month after their assembly.
The optical absorption measurements were collected using a hybrid multi-mode microplate reader (Synergy™ H1 model, BioTek Instruments, Inc.) in a 96-well plate. The dissociation of assembly was characterized by measuring the ratio of the absorbance at 520 nm or 530 nm and 700 nm or 820 nm for 20 nm NPs or 40 nm NPs, respectively.
The multispectral advanced nanoparticle tracking analysis (MANTA) is a technique that builds images from the particles' light scattering via three lasers of different wavelengths (for example, blue, green, and red); the wavelength of scattering depends on nanoparticle size. Thus, small particles (less than, or <, 100 nm) appear blue while larger particles appear greener or redder. MANTA uses these images to count the nanoparticles and calculate their size based on Brownian motion. MANTA was performed with the VIEWSIZER 3000™ (Horiba Scientific, USA). The temperature was set to 25° C. during the measurement. Automated noise analysis determines the optimal wavelength for representing each nanoparticle. Here, 8-bit composite videos were generated, and 10 videos were used per analysis (300 frames for seconds). A quartz cuvette with minimum volume of 1 mL was used for the measurement and the AuNPs concentrations was set up at 0.04 nM.

Series [6] is described as follows: Dissociation efficiency of HS-PEG6-OCH3 for alternative assembly conditions or coating ligands. The settings on record: high concentration (>100 μM) of HS-PEG6-OCH3.
Method: First, peptide-free conditions were used to promote the assembly of AuNPs-citrate and its dissociation with HS-PEG6-OCH3 was evaluated (FIG. 3A). Here, salts were added to AuNPs-citrate to induce aggregation via disruption of the electrostatic repulsion forces between the particles. […] Unlike the peptide Arg-Arg, these ions cannot sterically prevent the AuNPs from falling in an irreversible aggregated state.
AuNPs with different coating ligands were also evaluated and compared to citrate: bis(p-sulfonatophenyl)phenylphosphine (BSPP), mercaptobenzoic acid (MBA), or thiolated PEG-COOH (HS-PEG-COOH; Mw=634 g·mol^−1). […] This is because MBA and HS-PEG-COOH make covalent Au—S bonds with the gold surface that prevent subsequent grafting of HS-PEG6-OCH3.
Finally, an alternative control peptide was used for assembly (Cys-Arg-Lys).

Values joined by “and” are separate entries in the source; they are usually repeats but may differ in a detail not shown here. Equal values may be shown once. Where no end group is shown, it is not given here.

With “HS-PEG-RRKRRKRRK: HS-PEG12-COOH conjugated to peptide RRKRRKRRK via EDC/NHS (also: HS-PEG12 conjugated via EDC/NHS, site not given here)”, the “dissociation capacity of the intact conjugate” value with trypsin (titrated to Arg-Arg-AuNPs, up to >100 μM, no trypsin) is on record as “total quenching of the dissociation capacity”. The “dissociation capacity after digestion with trypsin” value with trypsin (trypsin 10 μM, 37° C., 24 h) was “restored”.

For the molecule Ace-EEKKC-Am [Peptide A9], in series [1], the “colloidal stability of peptide-capped AuNPs” value was “relatively low colloidal stability”.

For Ace-EEKKPPC-Am [Peptide A1], the “time to dissociate AuNP aggregates” value in series [2] (>150 μM peptide, ratiometric signal λ520/λ700) was 20 min. The “hydrodynamic diameter after dissociation” value in series [2] (A1 peptide 150 μM, aggregates >1 μm before) is 27±0.07 nm. Besides, the “CDC” value in series [2] (critical dissociation concentration, X (no dissociation)) was determined as 150 µM; in series [2] (spacer comparison PP, AA, GG), 40 µM. Moreover, the “colloidal stability of peptide-capped AuNPs” value in series [1] is reported as “higher colloidal stability than citrate-coated AuNPs”.

For the molecule RRKRRK, the “particle aggregation of AuNPs” value in series [3] was “effectively induced particle aggregation”.

With “Ace-CGGKKEEAVLQSGFR-Am (Ac-CGGKKEEAVLQSGFR-NH2) [Peptide A18]”, the “colloidal stability in extreme conditions” value in series [1] (DMEM, human plasma, saliva, human urine, NaCl 0.5 to 2M) is recorded as “maintained high colloidal stability”. In addition, in series [4], the CDC entry was “at least 40 μM”; the “LoD for Mpro” value is 12.3 nM and 16.7 nM and 16.4 nM; the specificity test result was “only Mpro dissociated AuNP aggregates”.

As for Arg-Arg-Lys [RRK], the “particle aggregation of AuNPs” value in series [3] was “effectively induced particle aggregation”. Moreover, in series [3] (red-shifted from 520 nm), the “plasmonic resonance peak after addition of peptide” value worked out at 648 nm.

As for `N=C(N)NCCC[C@H](N)C(=O)O` [R, arginine, reference compound], in series [5], the “induction of assembly of AuNPs-citrate” value is on record as “could not induce any form of assembly”. Also, the “particle aggregation of AuNPs” value in series [3] is listed as “did not aggregate”.

For the molecule Cys-Arg-Lys [reference compound], in series [6], the “dissociation of the assembly by HS-PEG6-OCH3” value is “irreversible”.

For the origin of these results see patent US20260071252A1, “REVERSIBLE NANOPARTICLE AGGREGATES AND METHODS FOR DETECTING PROTEASES” (The Regents of the University of California, priority 2022, published 2026).
